# PubChem BioAssay AID2060337 (Molecular Pharmacology Branch, DTP, NCI, 2025)
# Tested on: 832693-133-R-J1-PDC multi-cell spheroids, viability
# Assay: Anticancer human tumor 832693-133-R-J1-PDC patient-derived head and neck squamous carcinoma cell line growth inhibition [IpAb]
# Settings: for IC50: curve of first compound; for viability, T/C: stronger effect = lower value
# How it was run: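 Multi-cell spheroids of 60% tumour cells, 25% HUVEC and 15% MSC in ultra-low-attachment U-bottom wells, treated with agents combined with ipatasertib or abemaciclib. Half-log ranges top out near clinical Cmax, or 10 microM when Cmax is unknown.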
# [1] = second compound 0.01 µM, first compound 0.0316 µM
# [2] = second compound 0.01 µM, first compound 0.1 µM
# [3] = second compound 0.0316 µM, first compound 0.0316 µM
# [4] = second compound 0.0316 µM, first compound 0.1 µM
# [5] = second compound 0.1 µM, first compound 0.0316 µM
# [6] = second compound 0.1 µM, first compound 0.1 µM
# [7] = second compound 0.316 µM, first compound 0.0316 µM
# [8] = second compound 0.316 µM, first compound 0.1 µM
# [9] = second compound 1 µM, first compound 0.0316 µM
# [10] = second compound 1 µM, first compound 0.1 µM
# 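Also: spheroids exposed to the drugs for one week before the viability readout.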
# 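For viability, T/C in this document: 100% = DMSO vehicle control wells.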
compound,measurement,setting,value
Cn1ncc(Cl)c1-c1cc(C(=O)NC(CN)Cc2cccc(F)c2)sc1Cl (stereo not given) + CCN1CCN(Cc2ccc(Nc3ncc(F)c(-c4cc(F)c5nc(C)n(C(C)C)c5c4)n3)nc2)CC1,IC50,second compound 0.01 µM,4.49 µM
same,IC50,second compound 0.0316 µM,3.21 µM
same,IC50,second compound 0.1 µM,< 0.0316 µM
same,IC50,second compound 0.316 µM,< 0.0316 µM
same,IC50,second compound 1 µM,< 0.0316 µM
same,"viability, T/C",[1],94.4%
same,"viability, T/C",[2],91.1%
same,"viability, T/C","second compound 0.01 µM, first compound 0.316 µM",67.5%
same,"viability, T/C","second compound 0.01 µM, first compound 1 µM",50.2%
same,"viability, T/C","second compound 0.01 µM, first compound 3.16 µM",73.7%
same,"viability, T/C","second compound 0.01 µM, first compound 10 µM",0.29%
same,"viability, T/C",[3],79.4%
same,"viability, T/C",[4],70.2%
same,"viability, T/C","second compound 0.0316 µM, first compound 0.316 µM",61.3%
same,"viability, T/C","second compound 0.0316 µM, first compound 1 µM",46.6%
same,"viability, T/C","second compound 0.0316 µM, first compound 3.16 µM",59.9%
same,"viability, T/C","second compound 0.0316 µM, first compound 10 µM",0.25%
same,"viability, T/C",[5],64.4%
same,"viability, T/C",[6],50%
same,"viability, T/C","second compound 0.1 µM, first compound 0.316 µM",43.4%
same,"viability, T/C","second compound 0.1 µM, first compound 1 µM",37.8%
same,"viability, T/C","second compound 0.1 µM, first compound 3.16 µM",49.9%
same,"viability, T/C","second compound 0.1 µM, first compound 10 µM",0.21%
same,"viability, T/C",[7],53.2%
same,"viability, T/C",[8],38.4%
same,"viability, T/C","second compound 0.316 µM, first compound 0.316 µM",31.6%
same,"viability, T/C","second compound 0.316 µM, first compound 1 µM",33.3%
same,"viability, T/C","second compound 0.316 µM, first compound 3.16 µM",32.1%
same,"viability, T/C","second compound 0.316 µM, first compound 10 µM",0.19%
same,"viability, T/C",[9],47.6%
same,"viability, T/C",[10],37.1%
same,"viability, T/C","second compound 1 µM, first compound 0.316 µM",33.2%
same,"viability, T/C","second compound 1 µM, first compound 1 µM",32.8%
same,"viability, T/C","second compound 1 µM, first compound 3.16 µM",36%
same,"viability, T/C","second compound 1 µM, first compound 10 µM",0.28%
Cn1ncnc1[C@H]1c2n[nH]c(=O)c3cc(F)cc(c23)N[C@@H]1c1ccc(F)cc1 + CCN1CCN(Cc2ccc(Nc3ncc(F)c(-c4cc(F)c5nc(C)n(C(C)C)c5c4)n3)nc2)CC1,IC50,second compound 0.01 µM,> 0.1 µM
same,IC50,second compound 0.0316 µM,> 0.1 µM
same,IC50,second compound 0.1 µM,> 0.1 µM
same,IC50,second compound 0.316 µM,> 0.1 µM
same,IC50,second compound 1 µM,> 0.1 µM
same,"viability, T/C","second compound 0.01 µM, first compound 0.000316 µM",101%
same,"viability, T/C","second compound 0.01 µM, first compound 0.001 µM",109%
same,"viability, T/C","second compound 0.01 µM, first compound 0.00316 µM",93.2%
same,"viability, T/C","second compound 0.01 µM, first compound 0.01 µM",91.9%
same,"viability, T/C",[1],94.7%
same,"viability, T/C",[2],77.3%
same,"viability, T/C","second compound 0.0316 µM, first compound 0.000316 µM",90.5%
same,"viability, T/C","second compound 0.0316 µM, first compound 0.001 µM",86.1%
same,"viability, T/C","second compound 0.0316 µM, first compound 0.00316 µM",73.8%
same,"viability, T/C","second compound 0.0316 µM, first compound 0.01 µM",74.6%
same,"viability, T/C",[3],76%
same,"viability, T/C",[4],69.5%
same,"viability, T/C","second compound 0.1 µM, first compound 0.000316 µM",60.1%
same,"viability, T/C","second compound 0.1 µM, first compound 0.001 µM",58%
same,"viability, T/C","second compound 0.1 µM, first compound 0.00316 µM",61%
same,"viability, T/C","second compound 0.1 µM, first compound 0.01 µM",70.5%
same,"viability, T/C",[5],63%
same,"viability, T/C",[6],63.2%
same,"viability, T/C","second compound 0.316 µM, first compound 0.000316 µM",59.1%
same,"viability, T/C","second compound 0.316 µM, first compound 0.001 µM",53.6%
same,"viability, T/C","second compound 0.316 µM, first compound 0.00316 µM",60.5%
same,"viability, T/C","second compound 0.316 µM, first compound 0.01 µM",56.5%
same,"viability, T/C",[7],60.8%
same,"viability, T/C",[8],56.3%
same,"viability, T/C","second compound 1 µM, first compound 0.000316 µM",63.6%
same,"viability, T/C","second compound 1 µM, first compound 0.001 µM",56.2%
same,"viability, T/C","second compound 1 µM, first compound 0.00316 µM",60.6%
same,"viability, T/C","second compound 1 µM, first compound 0.01 µM",63.5%
same,"viability, T/C",[9],65.2%
same,"viability, T/C",[10],48.2%
